Laboratory results: EP0727211A1, “Use of src SH2 specific compounds to treat a bone resorption disease” (SMITHKLINE BEECHAM CORPORATION, priority 1995, dated 1996)
Where two headings read alike, the source gives them in different places.

Target: T1, human hcp SH2 domain (Homo sapiens, UniProt P29350)
T1 sequence (P29350 4-100): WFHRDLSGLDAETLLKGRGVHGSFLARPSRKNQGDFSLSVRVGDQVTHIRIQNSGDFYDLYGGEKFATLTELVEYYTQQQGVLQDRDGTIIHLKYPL
Experiment: SH2 domain / pY peptide binding assay (ELISA-based, 96 well plate), hcp SH2
Method: The inhibitory activity of compounds at the different human SH2 domains was determined in vitro using SH2 domains expressed as fusion proteins in E. coli. The SH2 domains used herein were the human forms of the src SH2 domain, Grb2 SH2 domain, lck SH2 domain, fyn SH2 domain, SH-PTP2 SH2 domain, p85 SH2 domain and hcp SH2 domain.
The fusion proteins containing the src, lck and hcp SH2 domains were expressed as the general sequence: DET1-DET2-spacer-ek-SH2, where DETI, DET2, spacer, ek and SH2 are as described below. DET1 ("defined epitope tag 1") (SEQ ID NO: 1) is an 11 amino acid sequence found in the Human Immunodeficiency Virus Type 1 (HIV-1) envelope protein gp120 (or gp160). Monoclonal antibodies to various epitopes of HIV-1 gp120 (or gp160) are known in the art, see, for example U.S. Patent 5,166,050. One preferred example is monoclonal antibody 178.1 (see, e.g., Thiriart et al., J. Immunol., 143:1832-1836 (1989)), which was prepared by immunization of mice with a yeast-expressed HIV-1 gp160 molecule from strain BH10 (Ratner et al., Nature, 313:277-284 (1985)). This tag was used for detection of expression (by Western blot), for purification of the protein (by affinity chromatography), and for configuring assays in which the fusion protein was captured or immobilized using the 178.1 antibody. DET2 is a hexahistidine sequence tag (SEQ ID NO: 2) which binds to nickel-containing resins and was used for purification purposes. Spacer (SEQ ID NO: 3) was utilized to design a BamH1 restriction site at the indicated position of the construct. The term -ekrefers to a recognition sequence (SEQ ID NO: 4) for the enterokinase protease which provides for the optional removal of the tags from the SH2 domain, thus producing an SH2 domain that contains no extraneous amino acids. SH2 domains which contain no extraneous amino acids are preferable to tagged protein for crystallography studies. SH2 refers to the SH2 domains of different proteins.
Cloning and expression of human hcp SH2 domain containing tags and an enterokinase proteolytic cleavage site (DET1-DET2-spacer-ek-hcp SH2).
A DNA sequence encoding protein ek-hcp SH2 was reverse transcriptase-PCR amplified from human fetal liver RNA. RNA isolation used Tri-Reagent (Molecular Research Center Inc.) and the Reverse Transcriptase system (GIBCO-BRL) according to the manufacture's instructions. PCR was carried out using the following primers: [formula]
The PCR product was digested with BglII and XbaI, followed by isolation of the digested fragment on an agarose gel. The fragment was ligated into BamHI-XbaI-digested expression vector containing the tagged human src gene DET1-DET2-spacer-ek-src SH2 described in Procedure 2 above. In that vector, the BamHI site is located in between the coding regions for DET2 and ek, and the XbaI site is located after the 3' end of the SH2 coding region. Thus, the ek-hcp SH2 sequence replaced the ek-src SH2 sequence in the above vector. The ligation reaction was used to transform E. coli MM294cI^+. The construct containing DET1-DET2-spacer-ek-hcp SH2 was confirmed by DNA sequencing (SEQ ID NO: 7) and used to transform E. coli GI698 (Invitrogen Corporation, San Diego, CA). Induction of the phage lambda promoter was induced by addition of tryptophan to the culture medium to 10 mg/ml, per the manufacture's instructions. A Coomassie-Blue-stained, Western-blot-positive induced protein band with an apparent molecular weight of 15,000 was observed after tryptophan induction of cells growing at 30° C.
Cells were lysed at neutral pH by sonication in the presance of lysozyme. After centrifugation, the insoluble pellet was solubilized with 8 M urea in Tris buffer pH 8 and bound onto a Ni^++NTA column. The resin was washed with equilibration buffer (Tris buffer pH 8 containing 0.5 M NaCl, 8 M urea and 5 mM BME) and the same buffer containing 15 mM imidazole. […]

[1] = cloned human SH2 domain fusion protein; 0.1 uM biotinylated pY peptide; Table I; read-out: Hcp (IC50)

Molecule	IC50 [1] [µM]	IC50 (read-out: Hcp (IC50); cloned human SH2 domain fusion protein; 0.1 uM biotinylated pY peptide; Table I) [µM]
4-acetamido-benzamido-trans-4-methyl-cyclohexyl-N-1-(amino-R-2-(methoxy methyl)-pyrrolidine) carboxamide [Compound 8]	> 100	
N[C@@H](Cc1cc(Br)c(Oc2ccc(O)c(Cc3ccc(O)nn3)c2)c(Br)c1)C(=O)O [Compound 2, L-3,5-Dibromo-3'-(6-oxo-3(1H)-pyridazinylmethyl)-thyronine]		0.9
Cc1ccc(C(=O)c2ccc(C(=O)c3ccc(CC=O)cc3)cc2)cc1 [Compound 4, 4-[4-(4-Methylbenzoyl)benzoyl]phenylacetaldehyde]	30	
Cc1nc2sc3c(c2c2[nH][nH]c(=O)c12)CCCC3 [Compound 10, 2,3,7,8,9,10-Hexahydro-4-methyl-1H-benzo[b]thieno[2,3-b]pyrazolo[3,4-d]pyridin-3-one]	1.2	

Now from value to molecule, other results behind:

IC50 [1] [µM]	Molecule	IC50 (read-out: Hcp (IC50); cloned human SH2 domain fusion protein; 0.1 uM biotinylated pY peptide; Table I) [µM]
1.2	Cc1nc2sc3c(c2c2[nH][nH]c(=O)c12)CCC1(C3)OCCO1 [Compound 3, 8,8-Ethylenedioxy-2,3,7,8,9,10-hexahydro-4-methyl-1H-benzo[b]thieno[2,3-b]pyrazolo[3,4-d]pyridin-3-one]	
0.1	Cc1nc2sc3c(c2c2c1c(=O)[nH]n2C)CCC1(C3)OCCO1 [Compound 5, 1,4-Dimethyl-8,8-ethylenedioxy-2,3,7,8,9,10-hexahydro-1H-benzo[b]thieno[2,3-b]pyrazolo[3,4-d]pyridin-3-one]	
> 300	CCCCCCNC(=O)[C@H]1CC[C@H](CNC(=O)c2ccc([N+](=O)[O-])cc2)CC1 [Compound 7, 4-nitro-benzamido-trans-4-methyl-cyclohexyl-N-hexyl carboxamide]	
12	CCCNC(=O)[C@H]1CC[C@H](CNC(=O)/C=C/c2ccc(C=O)cc2)CC1 [Compound 9, 4-formyl-E-cinnamido-trans-4-methyl-cyclohexyl-N-(propyl) carboxamide]	
